Columns and labels:
human DGAT1 = biological target: T1, human DGAT1 (Homo sapiens, UniProt O75907); test: Inhibition of DGAT1 activity, FlashPlate assay with DGAT1 membrane preparations and substrate micelles; type: biochemical; details: pIC50 = -logIC50, IC50 values expressed in M
T1 construct: FLAG (N); made in house; host or cells: SF9 insect cells (pFastBac baculovirus); total cell membranes
T1 sequence (O75907 1-488): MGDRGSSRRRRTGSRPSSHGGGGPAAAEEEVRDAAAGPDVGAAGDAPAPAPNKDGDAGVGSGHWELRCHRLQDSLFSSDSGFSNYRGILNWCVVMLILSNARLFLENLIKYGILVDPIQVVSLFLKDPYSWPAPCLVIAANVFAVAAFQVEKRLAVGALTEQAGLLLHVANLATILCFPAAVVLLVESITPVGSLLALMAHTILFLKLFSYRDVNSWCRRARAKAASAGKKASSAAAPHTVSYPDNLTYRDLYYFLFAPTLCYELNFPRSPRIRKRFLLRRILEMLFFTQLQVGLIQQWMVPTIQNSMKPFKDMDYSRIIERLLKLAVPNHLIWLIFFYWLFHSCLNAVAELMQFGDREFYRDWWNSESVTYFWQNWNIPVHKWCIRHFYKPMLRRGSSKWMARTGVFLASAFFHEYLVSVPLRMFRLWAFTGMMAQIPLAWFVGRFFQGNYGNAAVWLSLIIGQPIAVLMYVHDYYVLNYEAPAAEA
How it was run: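 FLAG-tagged human DGAT1 membranes (expressed in Sf9 cells) were incubated 120 min at 37° C. in 50 mM Tris-HCl pH 7.4 with 150 mM MgCl2, 1 mM EDTA, 0.2% BSA, 50 μM DAG micelles (PC/PS) and 8.4 μM [^3H]-oleoylCoA. The reaction was stopped with N-ethylmaleimide and read as FlashPlate radioluminescence. Responses were normalized to enzyme/no-enzyme controls to fit dose-response curves.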

GLP-1 plasma levels = test: In vivo study for effect of test compound on GLP-1 plasma levels (postprandial profile); details: dogs fasted 22 hours, liquid meal 18% fat, compound given orally with the meal; compared with own profile without compound; compound 223 at 0.3 mg/kg in FIG. 1
Description: B) In Vivo Study for Effect of Test Compound on GLP-1 Plasma Levels
Elevation of GLP-1 plasma levels by a DGAT inhibitor was studied as follows:
(§1) Dogs were deprived from food for a period of 22 hours. At time 0, animals were given a liquid meal, containing 18% fat (w/w), by gavage with a stomach tube. The test compound was given orally together with the meal. Afterwards, a postprandial plasma profile was determined for GLP-1. Therefore, blood was collected at predetermined time intervals in ice-cooled Vacutainers EDTA-plasma tubes and GLP-1 levels were measured in the samples taken at 0 hour (just before the meal) and at 0.5, 1, 2, 4, 6, 8 and 24 hours after dosing. Six dogs (3 males and 3 females) were included per dosage group and the plasma GLP-1 profile was compared with their own GLP-1 profile previously determined in the same conditions but without administration of the test compound.
GLP-1 determinations in plasma were performed with a Glucagon-like peptide-1 (active) ELISA kit 96-well plate of LINCO Research.

[1] = system: plasma triglyceride levels; test: Plasma triglyceride profile after liquid fat meal in dogs; type: in vivo; details: liquid meal 18% fat, compound given orally, compared with own profile without compound
Description: as §1
In addition to the plasma GLP-1 profile, also the plasma triglyceride profile can be determined and compared with their own triglyceride profile previously determined in the same conditions but without administration of the test compound. After administration of compound 223, triglyceride levels decreased.

Structure (SMILES): COc1ccc(CC(=O)Nc2ccc(N3CCN(C(=O)Nc4c(Cl)cc(CN5CCCC5)cc4Cl)CC3)cc2)cc1 [Compound 223]
- IC50 (human DGAT1): 20 nM
- melting point: 252.22 °C
- GLP-1 plasma levels (postprandial plasma profile) (GLP-1 plasma levels): increase GLP-1 levels
- plasma triglyceride levels (profile) [1]: decreased

Source: patent publication US8981094B2, “Piperidine/piperazine derivatives” (Janssen Pharmaceutica N.V., priority 2007, dated 2015)
